Measurements: article PMC12090182, “Repurposing of the RIPK1-Selective Benzo[1,4]oxazepin-4-one Scaffold for the Development of a Type III LIMK1/2 Inhibitor” (ACS Chemical Biology, 2025)

Experiments:
Experiment in all cases: biochemical
Assay type in all cases: binding
[1] = target: 468 kinases including some pathogenic mutants (Homo sapiens, UniProt O00329); conditions: PIK3CD (Entrez PIK3CD), 100 nM; read-out: Percent Control
[2] = target: 468 kinases including some pathogenic mutants (Homo sapiens, UniProt O14965); conditions: AURKA (Entrez AURKA), 100 nM; read-out: Percent Control
[3] = target: 468 kinases including some pathogenic mutants (Homo sapiens, UniProt O15146); conditions: MUSK (Entrez MUSK), 100 nM; read-out: Percent Control
Sequence of 468 kinases including some pathogenic mutants (Homo sapiens, UniProt O15146) (O15146 24-869, stated change not applied): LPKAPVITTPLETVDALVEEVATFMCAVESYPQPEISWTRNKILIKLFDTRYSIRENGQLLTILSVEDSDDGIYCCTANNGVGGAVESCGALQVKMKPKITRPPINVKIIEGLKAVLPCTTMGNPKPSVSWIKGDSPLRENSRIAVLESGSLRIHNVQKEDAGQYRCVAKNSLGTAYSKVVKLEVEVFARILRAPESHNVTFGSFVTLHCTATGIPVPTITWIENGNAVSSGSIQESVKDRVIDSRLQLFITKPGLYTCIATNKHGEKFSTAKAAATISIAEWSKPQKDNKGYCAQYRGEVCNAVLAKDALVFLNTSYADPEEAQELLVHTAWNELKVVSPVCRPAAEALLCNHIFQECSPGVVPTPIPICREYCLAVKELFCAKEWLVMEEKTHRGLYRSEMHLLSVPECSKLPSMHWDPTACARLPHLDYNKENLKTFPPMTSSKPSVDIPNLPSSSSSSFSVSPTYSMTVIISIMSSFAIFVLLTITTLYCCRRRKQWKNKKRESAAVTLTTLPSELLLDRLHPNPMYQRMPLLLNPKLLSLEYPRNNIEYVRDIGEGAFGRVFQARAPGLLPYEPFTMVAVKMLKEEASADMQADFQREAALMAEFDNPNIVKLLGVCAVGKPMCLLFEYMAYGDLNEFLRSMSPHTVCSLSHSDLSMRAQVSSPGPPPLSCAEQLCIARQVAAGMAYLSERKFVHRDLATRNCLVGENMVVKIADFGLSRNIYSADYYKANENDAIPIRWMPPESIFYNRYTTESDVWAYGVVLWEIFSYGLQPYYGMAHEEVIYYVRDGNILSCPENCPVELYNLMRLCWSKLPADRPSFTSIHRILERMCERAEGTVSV

[4] = target: 468 kinases including some pathogenic mutants (Homo sapiens, UniProt O15264); conditions: p38-delta (Entrez MAPK13), 1000 nM; read-out: Percent Control
[5] = target: 468 kinases including some pathogenic mutants (Homo sapiens, UniProt O60674); conditions: JAK2(JH1domain-catalytic) (Entrez JAK2), 1000 nM; read-out: Percent Control
[6] = target: 468 kinases including some pathogenic mutants (Homo sapiens, UniProt P07948); conditions: LYN (Entrez LYN), 100 nM; read-out: Percent Control
[7] = target: 468 kinases including some pathogenic mutants (Homo sapiens, UniProt P08581, M1250T); conditions: read-out: Percent Control
[8] = target: 468 kinases including some pathogenic mutants (Homo sapiens, UniProt P10721, A829P); conditions: read-out: Percent Control
[9] = target: 468 kinases including some pathogenic mutants (Homo sapiens, UniProt P29322); conditions: EPHA8 (Entrez EPHA8), 100 nM; read-out: Percent Control
Sequence of 468 kinases including some pathogenic mutants (Homo sapiens, UniProt P29322) (P29322 28-1005, change not shown): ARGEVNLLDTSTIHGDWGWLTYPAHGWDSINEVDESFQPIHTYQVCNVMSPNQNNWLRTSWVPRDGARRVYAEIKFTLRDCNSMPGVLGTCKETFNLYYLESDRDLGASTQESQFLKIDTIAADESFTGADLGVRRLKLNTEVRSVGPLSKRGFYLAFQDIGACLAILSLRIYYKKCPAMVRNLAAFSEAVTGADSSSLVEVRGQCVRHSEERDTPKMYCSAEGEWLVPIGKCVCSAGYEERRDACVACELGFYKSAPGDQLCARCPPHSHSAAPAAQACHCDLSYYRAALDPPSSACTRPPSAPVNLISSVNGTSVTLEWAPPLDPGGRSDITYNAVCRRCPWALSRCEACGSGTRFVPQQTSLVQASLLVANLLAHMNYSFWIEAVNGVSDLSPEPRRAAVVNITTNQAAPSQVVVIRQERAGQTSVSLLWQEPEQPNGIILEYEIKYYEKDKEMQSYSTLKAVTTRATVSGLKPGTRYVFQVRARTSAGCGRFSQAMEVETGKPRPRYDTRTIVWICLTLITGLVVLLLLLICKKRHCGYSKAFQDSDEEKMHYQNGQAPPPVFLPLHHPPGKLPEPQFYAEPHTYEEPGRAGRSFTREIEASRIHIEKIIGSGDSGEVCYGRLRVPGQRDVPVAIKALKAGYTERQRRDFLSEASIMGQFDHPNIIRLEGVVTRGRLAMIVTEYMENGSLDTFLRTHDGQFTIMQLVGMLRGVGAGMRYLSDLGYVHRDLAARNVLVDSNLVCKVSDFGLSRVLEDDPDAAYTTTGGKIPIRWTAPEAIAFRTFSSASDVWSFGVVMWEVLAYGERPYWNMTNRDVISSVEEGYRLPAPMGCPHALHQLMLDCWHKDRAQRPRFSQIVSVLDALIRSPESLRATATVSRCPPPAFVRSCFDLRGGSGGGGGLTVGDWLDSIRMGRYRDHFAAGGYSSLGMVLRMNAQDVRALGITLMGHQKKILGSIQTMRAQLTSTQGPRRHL

[10] = target: 468 kinases including some pathogenic mutants (Homo sapiens, UniProt P32298); conditions: GRK4 (Entrez GRK4), 100 nM; read-out: Percent Control
Sequence of 468 kinases including some pathogenic mutants (Homo sapiens, UniProt P32298) (P32298 whole entry, change not shown): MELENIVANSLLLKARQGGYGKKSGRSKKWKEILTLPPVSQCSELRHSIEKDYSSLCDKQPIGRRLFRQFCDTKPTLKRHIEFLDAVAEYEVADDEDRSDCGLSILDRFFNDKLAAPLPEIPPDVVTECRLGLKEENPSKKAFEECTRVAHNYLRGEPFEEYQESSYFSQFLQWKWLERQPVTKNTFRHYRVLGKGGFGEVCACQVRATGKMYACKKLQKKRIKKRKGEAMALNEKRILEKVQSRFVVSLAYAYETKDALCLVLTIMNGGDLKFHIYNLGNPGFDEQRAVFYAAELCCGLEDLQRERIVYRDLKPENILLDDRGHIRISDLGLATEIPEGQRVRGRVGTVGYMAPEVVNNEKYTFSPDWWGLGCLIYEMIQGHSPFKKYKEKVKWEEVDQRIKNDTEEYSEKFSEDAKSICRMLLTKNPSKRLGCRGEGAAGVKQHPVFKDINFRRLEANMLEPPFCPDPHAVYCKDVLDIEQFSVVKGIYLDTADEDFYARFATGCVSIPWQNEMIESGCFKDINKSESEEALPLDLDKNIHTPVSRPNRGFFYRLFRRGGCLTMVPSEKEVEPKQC

[11] = target: 468 kinases including some pathogenic mutants (Homo sapiens, UniProt P35916); conditions: FLT4 (Entrez FLT4), 100 nM; read-out: Percent Control
Sequence of 468 kinases including some pathogenic mutants (Homo sapiens, UniProt P35916) (P35916 25-1363, change not shown): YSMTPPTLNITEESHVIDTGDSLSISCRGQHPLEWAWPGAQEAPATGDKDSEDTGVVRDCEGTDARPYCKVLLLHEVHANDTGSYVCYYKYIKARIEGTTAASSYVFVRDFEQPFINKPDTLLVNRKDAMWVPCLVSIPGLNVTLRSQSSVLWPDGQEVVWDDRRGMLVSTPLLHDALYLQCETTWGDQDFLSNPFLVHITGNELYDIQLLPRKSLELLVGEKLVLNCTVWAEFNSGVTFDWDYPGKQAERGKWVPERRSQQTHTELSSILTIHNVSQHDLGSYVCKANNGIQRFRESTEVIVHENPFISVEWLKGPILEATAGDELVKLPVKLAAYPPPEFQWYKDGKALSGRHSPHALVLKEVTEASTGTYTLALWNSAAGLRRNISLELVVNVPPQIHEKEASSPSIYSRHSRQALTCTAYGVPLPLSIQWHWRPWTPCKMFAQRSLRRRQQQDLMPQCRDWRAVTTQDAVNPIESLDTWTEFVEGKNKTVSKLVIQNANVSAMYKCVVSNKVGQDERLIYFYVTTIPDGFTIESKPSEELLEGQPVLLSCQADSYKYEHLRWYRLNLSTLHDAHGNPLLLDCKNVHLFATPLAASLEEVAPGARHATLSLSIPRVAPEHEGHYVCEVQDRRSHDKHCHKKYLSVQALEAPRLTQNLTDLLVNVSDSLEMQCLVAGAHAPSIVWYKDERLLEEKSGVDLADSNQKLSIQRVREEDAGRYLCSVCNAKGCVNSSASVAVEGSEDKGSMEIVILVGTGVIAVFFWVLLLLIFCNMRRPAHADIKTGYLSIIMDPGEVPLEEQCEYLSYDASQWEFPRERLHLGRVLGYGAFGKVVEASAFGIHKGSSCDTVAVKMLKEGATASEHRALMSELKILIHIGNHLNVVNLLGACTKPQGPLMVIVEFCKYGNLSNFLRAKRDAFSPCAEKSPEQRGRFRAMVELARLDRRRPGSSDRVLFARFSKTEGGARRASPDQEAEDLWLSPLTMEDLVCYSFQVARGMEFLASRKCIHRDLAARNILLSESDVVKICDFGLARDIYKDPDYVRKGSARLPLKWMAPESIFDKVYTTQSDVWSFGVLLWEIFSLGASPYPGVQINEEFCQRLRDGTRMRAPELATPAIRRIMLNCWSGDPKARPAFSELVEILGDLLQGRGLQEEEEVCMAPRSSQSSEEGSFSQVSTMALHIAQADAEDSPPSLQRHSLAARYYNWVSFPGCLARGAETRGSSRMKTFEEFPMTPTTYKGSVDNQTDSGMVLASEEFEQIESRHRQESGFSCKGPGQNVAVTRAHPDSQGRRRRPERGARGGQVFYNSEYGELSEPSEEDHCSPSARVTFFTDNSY

[12] = target: 468 kinases including some pathogenic mutants (Homo sapiens, UniProt P37023); conditions: ACVRL1 (Entrez ACVRL1), 100 nM; read-out: Percent Control
[13] = target: 468 kinases including some pathogenic mutants (Homo sapiens, UniProt P42681); conditions: TXK (Entrez TXK), 100 nM; read-out: Percent Control
[14] = target: 468 kinases including some pathogenic mutants (Homo sapiens, UniProt P48729); conditions: CSNK1A1 (Entrez CSNK1A1), 100 nM; read-out: Percent Control
[15] = target: 468 kinases including some pathogenic mutants (Homo sapiens, UniProt Q02750); conditions: MEK1 (Entrez MAP2K1), 1000 nM; read-out: Percent Control
[16] = target: 468 kinases including some pathogenic mutants (Homo sapiens, UniProt Q13177); conditions: PAK2 (Entrez PAK2), 100 nM; read-out: Percent Control
[17] = target: 468 kinases including some pathogenic mutants (Homo sapiens, UniProt Q13705); conditions: ACVR2B (Entrez ACVR2B), 100 nM; read-out: Percent Control
Sequence of 468 kinases including some pathogenic mutants (Homo sapiens, UniProt Q13705) (Q13705 19-512, change not shown): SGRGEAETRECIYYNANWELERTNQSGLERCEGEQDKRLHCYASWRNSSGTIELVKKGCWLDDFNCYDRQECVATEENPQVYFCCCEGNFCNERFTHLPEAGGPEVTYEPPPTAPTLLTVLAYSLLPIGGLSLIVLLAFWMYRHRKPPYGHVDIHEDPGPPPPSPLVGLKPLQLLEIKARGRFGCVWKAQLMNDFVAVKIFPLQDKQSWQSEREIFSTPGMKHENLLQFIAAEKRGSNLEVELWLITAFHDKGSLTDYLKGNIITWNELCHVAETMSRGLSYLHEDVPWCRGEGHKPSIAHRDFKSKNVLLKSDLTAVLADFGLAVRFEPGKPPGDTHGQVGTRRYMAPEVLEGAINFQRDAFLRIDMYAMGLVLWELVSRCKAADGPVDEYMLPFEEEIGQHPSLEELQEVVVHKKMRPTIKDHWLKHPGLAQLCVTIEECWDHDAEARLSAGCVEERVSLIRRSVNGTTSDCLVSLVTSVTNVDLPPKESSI

[18] = target: 468 kinases including some pathogenic mutants (Homo sapiens, UniProt Q16566); conditions: CAMK4 (Entrez CAMK4), 100 nM; read-out: Percent Control
[19] = target: 468 kinases including some pathogenic mutants (Homo sapiens, UniProt Q56UN5); conditions: YSK4 (Entrez MAP3K19), 1000 nM; read-out: Percent Control
[20] = target: 468 kinases including some pathogenic mutants (Homo sapiens, UniProt Q5S007, G2019S); conditions: read-out: Percent Control
[21] = target: 468 kinases including some pathogenic mutants (Homo sapiens, UniProt Q86V86); conditions: PIM3 (Entrez PIM3), 100 nM; read-out: Percent Control
[22] = target: 468 kinases including some pathogenic mutants (Homo sapiens, UniProt Q9BX84); conditions: TRPM6 (Entrez TRPM6), 1000 nM; read-out: Percent Control
[23] = target: 468 kinases including some pathogenic mutants (Homo sapiens, UniProt Q9H1R3); conditions: MYLK2 (Entrez MYLK2), 100 nM; read-out: Percent Control
[24] = target: 468 kinases including some pathogenic mutants (Homo sapiens, UniProt Q9NYY3); conditions: PLK2 (Entrez PLK2), 1000 nM; read-out: Percent Control
Sequence of 468 kinases including some pathogenic mutants (Homo sapiens, UniProt Q9NYY3) (Q9NYY3 whole entry, change not shown): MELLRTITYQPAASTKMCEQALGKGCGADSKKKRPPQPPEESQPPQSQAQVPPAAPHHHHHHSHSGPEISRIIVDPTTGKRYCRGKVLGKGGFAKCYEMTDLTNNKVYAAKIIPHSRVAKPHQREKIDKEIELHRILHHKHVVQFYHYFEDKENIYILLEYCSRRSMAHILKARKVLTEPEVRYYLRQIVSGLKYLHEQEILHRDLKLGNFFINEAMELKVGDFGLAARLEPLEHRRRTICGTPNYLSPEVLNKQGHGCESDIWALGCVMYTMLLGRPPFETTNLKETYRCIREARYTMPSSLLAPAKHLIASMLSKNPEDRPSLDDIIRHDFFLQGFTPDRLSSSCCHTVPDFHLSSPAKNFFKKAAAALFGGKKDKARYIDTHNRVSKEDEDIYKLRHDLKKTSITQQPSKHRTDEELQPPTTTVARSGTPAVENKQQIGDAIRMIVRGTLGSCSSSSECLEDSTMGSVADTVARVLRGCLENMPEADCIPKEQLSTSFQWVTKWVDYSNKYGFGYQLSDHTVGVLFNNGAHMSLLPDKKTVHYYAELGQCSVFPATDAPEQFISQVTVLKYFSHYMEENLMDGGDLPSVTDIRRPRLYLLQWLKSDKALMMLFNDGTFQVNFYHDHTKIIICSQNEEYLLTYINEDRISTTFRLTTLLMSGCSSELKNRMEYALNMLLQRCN

[25] = target: 468 kinases including some pathogenic mutants (Homo sapiens, UniProt Q9P0L2); conditions: MARK1 (Entrez MARK1), 1000 nM; read-out: Percent Control
[26] = target: 468 kinases including some pathogenic mutants (Homo sapiens, UniProt Q9UPZ9); conditions: ICK (Entrez ICK), 100 nM; read-out: Percent Control
[27] = target: 468 kinases including some pathogenic mutants (Homo sapiens, UniProt Q9UQ88); conditions: CDC2L2 (Entrez CDC2L2), 100 nM; read-out: Percent Control
[28] = target: 468 kinases including some pathogenic mutants (Homo sapiens, UniProt Q9Y2H1); conditions: NDR2 (Entrez STK38L), 100 nM; read-out: Percent Control
[29] = target: 468 kinases including some pathogenic mutants (Homo sapiens, UniProt Q9Y5S2); conditions: MRCKB (Entrez CDC42BPB), 1000 nM; read-out: Percent Control

CN1C(=O)[C@@H](N2CCc3c(nn(Cc4ccccc4)c3C(N)=O)C2=O)COc2cc(Cl)ccc21 [Compound 10, (S)-2-benzyl-6-(8-chloro-5-methyl-4-oxo-2,3,4,5-tetrahydrobenzo[b][1,4]oxazepin-3-yl)-7-oxo-4,5,6,7-tetrahydro-2H-pyrazolo[3,4-c]pyridine-3-carboxamide]
remaining activity at 0.1 µM [1]: 60% | remaining activity at 0.1 µM [2]: 58% | remaining activity at 0.1 µM [3]: 94% | remaining activity at 1 µM [4]: 100% | remaining activity at 1 µM [5]: 100% | remaining activity at 0.1 µM [6]: 100% | remaining activity at 0.1 µM [7]: 80% | remaining activity at 1 µM [8]: 100% | remaining activity at 0.1 µM [9]: 87% | remaining activity at 0.1 µM [10]: 82% | remaining activity at 0.1 µM [11]: 76% | remaining activity at 0.1 µM [12]: 73% | remaining activity at 0.1 µM [13]: 88% | remaining activity at 0.1 µM [14]: 73% | remaining activity at 1 µM [15]: 100% | remaining activity at 0.1 µM [16]: 88% | remaining activity at 0.1 µM [17]: 92% | remaining activity at 0.1 µM [18]: 76% | remaining activity at 1 µM [19]: 100% | remaining activity at 0.1 µM [20]: 85% | remaining activity at 0.1 µM [21]: 87% | remaining activity at 1 µM [22]: 100% | remaining activity at 0.1 µM [23]: 90% | remaining activity at 1 µM [24]: 100% | remaining activity at 1 µM [25]: 100% | remaining activity at 0.1 µM [26]: 100% | remaining activity at 0.1 µM [27]: 100% | remaining activity at 0.1 µM [28]: 71% | remaining activity at 1 µM [29]: 100%
